Reference: PubChem BioAssay AID1963444 (Molecular Pharmacology Branch, DTP, NCI, 2024)

Test system: HSSY-II complex spheroid growth, percent test/control
Assay: Anticancer human tumor HSSY-II cell line growth inhibition [Asc];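 further: spheroids exposed to drug for 7 days before reading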
Settings: for IC50: curve of first compound; for viability, T/C: stronger effect = lower value
Protocol: Multicellular complex tumor spheroid response to apoptosis pathway targeting inhibitors Alrizomadlin, Pelcitoclax, and Dasminapant in combination with a variety of drugs and investigational agents in selected tumor cell lines
The MDM2 inhibitor alrizomadlin, the Bcl-2/Bcl-xL inhibitor pelcitoclax, and the IAPs inhibitor dasminapant were evaluated both individually and in combination with standard of care and investigational anticancer small molecules within a complex spheroid model of solid tumors. . Complex spheroids include a stromal component modeled by human endothelial cells (HUVEC) and fibroblasts modeled by human mesenchymal stem cells (MSCs). The concentration ranges selected for each drug and investigational agent were based upon clinically achievable concentrations if the clinical Cmax of the agent was known.
Compounds. The drugs and investigational agents: alrizomadlin (APG-115; NSC831270), pelcitoclax (APG-1252; NSC835773), dasminapant (APG-1387;NSC834197), TAK-243 (NSC785004), copanlisib (NSC809693), olaparib (NSC753686), talazoparib (NSC767125), cobimetinib (NSC 768068), eltanexor (KPT-8602, NSC 794443), abemaciclib (NSC 768073), sotorasib (NSC818433), adagrasib (NSC 831453), MRTX-1133 (NSC 836407), Iadademestat (ORY1001, NSC 806812), and RMC-4630 (NSC839698), were obtained from the NCI Developmental Therapeutics Program Chemical Repository. The FDA-approved anticancer drug set is available from the Developmental Therapeutics Program at https://dtp.cancer.gov/organization/dscb/obtaining/available plates.htm. […] The stock solutions were prepared in dimethyl sulfoxide (DMSO, Sigma-Aldrich, St. Louis, MO, cat. D2650) at 800-fold the tested concentration and stored at -70 degrees C prior to their use. All drugs and investigational agents were tested over a range starting from a high concentration at or near the clinical Cmax and decreasing in half-log increments. If the clinical Cmax for an agent had not been determined, the highest concentration tested was 10 microM.
The patient-derived cancer (PDC) cell lines include five colon adenocarcinomas: 186277-243-T-J2-PDC, 616215-338-R-J1-PDC, 439559-082-T-J2-PDC, 463943-066-T-J2-PDC, and 519858-162-T-J1-PDC; three pancreatic carcinomas: 323965-272-R-J2-PDC, 521955-158-R6-J3-PDC, and 521955-158-R2-J5-PDC; two uterine sarcomas: 327498-152-R-J2-PDC and 993429-296-R-J1-PDC; two rhabdomyosarcomas: 755483-174-R-J1-PDC and 772245-204-R-J1-PDC; two soft tissue sarcomas: 126254-015-R-J1-PDC and 494315-158-R-J1-PDC; two malignant fibrous histiocytomas: 317291-083-R-J1-PDC and 596521-263-R-J1-PDC; two breast carcinomas: 171881-019-R-J1-PDC and 885512-296-R-J2-PDC; and one ovarian carcinoma: 6556581-035-R-J-PDC were obtained from the NCI PDMR, (https://pdmr.cancer.gov). The established cell lines HSSY-2 synovial sarcoma (RRID:CVCL 8719), SYO-1 synovial sarcoma (RRID:CVCL_7146), MPNST malignant peripheral neural sheath tumor were obtained from the Sloan Kettering Institute. The following established cell lines were purchased from the American Type Culture Collection (ATCC, Manassas, VA), Sor the received from the NCI repository:, PANC-1 pancreatic carcinoma (CRL-1469, RRID:CVCL_0480), OVCAR-5 ovarian carcinoma (RRID:CVCL_1628), OVCAR-8 ovarian carcinoma (RRID:CVCL_1629), , MCF-7 breast carcinoma (CRL-12584, RRID:CVCL_0031), MDA-MB-231 breast carcinoma (CRL-12532, RRID:CVCL_0062), NCI-H1876 small cell lung carcinoma (CRL-5902, RRID:CVCL_1503), NCI-H510A small cell lung carcinoma (HTB-184, RRID:CVCL_1565), NCI-H1417 (CRL-5869, RRID:CVCL_1469), and NCI-H196 small cell lung carcinoma (CRL-5823, RRID:CVCL_1509). Dr. Peter Houghton (Greehey Children's Cancer Research Institute, University of Texas Health Science Center, San Antonio, TX) provided Rh-18 rhabdomyosarcoma (RRID:CVCL_1659). Pooled donor human umbilical vein endothelial cells (HUVEC, Lonza, cat. CC-2519) and human mesenchymal stem cells (hMSC, Lonza, cat. PT-2501) were purchased from Lonza (Walkersville, MD).
Cell Culture. […]

[1] = second compound 0.03 µM, first compound 0.00316 µM
[2] = second compound 0.03 µM, first compound 0.01 µM
[3] = second compound 0.03 µM, first compound 0.0316 µM
[4] = second compound 0.03 µM, first compound 0.1 µM
[5] = second compound 0.0949 µM, first compound 0.00316 µM
[6] = second compound 0.0949 µM, first compound 0.01 µM
[7] = second compound 0.0949 µM, first compound 0.0316 µM
[8] = second compound 0.0949 µM, first compound 0.1 µM
[9] = second compound 0.3 µM, first compound 0.00316 µM
[10] = second compound 0.3 µM, first compound 0.01 µM
[11] = second compound 0.3 µM, first compound 0.0316 µM
[12] = second compound 0.3 µM, first compound 0.1 µM
[13] = second compound 0.949 µM, first compound 0.00316 µM
[14] = second compound 0.949 µM, first compound 0.01 µM
[15] = second compound 0.949 µM, first compound 0.0316 µM
[16] = second compound 0.949 µM, first compound 0.1 µM
[17] = second compound 3 µM, first compound 0.00316 µM
[18] = second compound 3 µM, first compound 0.01 µM
[19] = second compound 3 µM, first compound 0.0316 µM
[20] = second compound 3 µM, first compound 0.1 µM

## CCN1CCN(Cc2ccc(Nc3ncc(F)c(-c4cc(F)c5nc(C)n(C(C)C)c5c4)n3)nc2)CC1 + CCN1C(C(=O)NC23CCC(C(=O)O)(CC2)CC3)C(c2cccc(Cl)c2F)C2(C(=O)Nc3cc(Cl)ccc32)C12CCCCC2
Second compound 0.03 µM
  IC50: 83.5 nM
Second compound 0.0949 µM
  IC50: 16.8 nM
Second compound 0.3 µM
  IC50: < 3.16 nM
Second compound 0.949 µM
  IC50: < 3.16 nM
Second compound 3 µM
  IC50: < 3.16 nM
[1]
  viability, T/C: 90.3%
[2]
  viability, T/C: 72.4%
[3]
  viability, T/C: 58.7%
[4]
  viability, T/C: 49.1%
Second compound 0.03 µM, first compound 0.316 µM
  viability, T/C: 39.5%
Second compound 0.03 µM, first compound 1 µM
  viability, T/C: 22.7%
[5]
  viability, T/C: 63%
[6]
  viability, T/C: 57.5%
[7]
  viability, T/C: 41.1%
[8]
  viability, T/C: 34%
Second compound 0.0949 µM, first compound 0.316 µM
  viability, T/C: 26.1%
Second compound 0.0949 µM, first compound 1 µM
  viability, T/C: 12.1%
[9]
  viability, T/C: 27.4%
[10]
  viability, T/C: 22.6%
[11]
  viability, T/C: 24.6%
[12]
  viability, T/C: 19.2%
Second compound 0.3 µM, first compound 0.316 µM
  viability, T/C: 13.8%
Second compound 0.3 µM, first compound 1 µM
  viability, T/C: 5.79%
[13]
  viability, T/C: 8.49%
[14]
  viability, T/C: 8.58%
[15]
  viability, T/C: 8.12%
[16]
  viability, T/C: 6.47%
Second compound 0.949 µM, first compound 0.316 µM
  viability, T/C: 6.16%
Second compound 0.949 µM, first compound 1 µM
  viability, T/C: 3.21%
[17]
  viability, T/C: 2.42%
[18]
  viability, T/C: 2.83%
[19]
  viability, T/C: 2.95%
[20]
  viability, T/C: 2.31%
Second compound 3 µM, first compound 0.316 µM
  viability, T/C: 2.12%
Second compound 3 µM, first compound 1 µM
  viability, T/C: 4.53%

## NC(=O)C(=Cn1cnc(-c2cc(C(F)(F)F)cc(C(F)(F)F)c2)n1)c1cncnc1 + CCN1C(C(=O)NC23CCC(C(=O)O)(CC2)CC3)C(c2cccc(Cl)c2F)C2(C(=O)Nc3cc(Cl)ccc32)C12CCCCC2
Second compound 0.03 µM
  IC50: 10.5 nM
Second compound 0.0949 µM
  IC50: 3.06 nM
Second compound 0.3 µM
  IC50: < 0.949 nM
Second compound 0.949 µM
  IC50: < 0.949 nM
Second compound 3 µM
  IC50: < 0.949 nM
Second compound 0.03 µM, first compound 0.000949 µM
  viability, T/C: 97.5%
Second compound 0.03 µM, first compound 0.003 µM
  viability, T/C: 76%
Second compound 0.03 µM, first compound 0.00949 µM
  viability, T/C: 51.1%
Second compound 0.03 µM, first compound 0.03 µM
  viability, T/C: 31.9%
Second compound 0.03 µM, first compound 0.0949 µM
  viability, T/C: 7.28%
Second compound 0.03 µM, first compound 0.3 µM
  viability, T/C: 0.44%
Second compound 0.0949 µM, first compound 0.000949 µM
  viability, T/C: 63.5%
Second compound 0.0949 µM, first compound 0.003 µM
  viability, T/C: 52.7%
Second compound 0.0949 µM, first compound 0.00949 µM
  viability, T/C: 26.6%
Second compound 0.0949 µM, first compound 0.03 µM
  viability, T/C: 15.9%
Second compound 0.0949 µM, first compound 0.0949 µM
  viability, T/C: 2.85%
Second compound 0.0949 µM, first compound 0.3 µM
  viability, T/C: 0.23%
Second compound 0.3 µM, first compound 0.000949 µM
  viability, T/C: 21.4%
Second compound 0.3 µM, first compound 0.003 µM
  viability, T/C: 18%
Second compound 0.3 µM, first compound 0.00949 µM
  viability, T/C: 11.6%
Second compound 0.3 µM, first compound 0.03 µM
  viability, T/C: 3.8%
Second compound 0.3 µM, first compound 0.0949 µM
  viability, T/C: 0.31%
Second compound 0.3 µM, first compound 0.3 µM
  viability, T/C: 0.12%
Second compound 0.949 µM, first compound 0.000949 µM
  viability, T/C: 7.25%
Second compound 0.949 µM, first compound 0.003 µM
  viability, T/C: 5.2%
Second compound 0.949 µM, first compound 0.00949 µM
  viability, T/C: 2.01%
Second compound 0.949 µM, first compound 0.03 µM
  viability, T/C: 0.49%
Second compound 0.949 µM, first compound 0.0949 µM
  viability, T/C: 0.03%
Second compound 0.949 µM, first compound 0.3 µM
  viability, T/C: 0.14%
Second compound 3 µM, first compound 0.000949 µM
  viability, T/C: 2.04%
Second compound 3 µM, first compound 0.003 µM
  viability, T/C: 1.1%
Second compound 3 µM, first compound 0.00949 µM
  viability, T/C: 0.3%
Second compound 3 µM, first compound 0.03 µM
  viability, T/C: 0.2%
Second compound 3 µM, first compound 0.0949 µM
  viability, T/C: 0.16%
Second compound 3 µM, first compound 0.3 µM
  viability, T/C: 0.26%

## NC1CCC(NC2CC2c2ccccc2)CC1 (stereo not given) + CCN1C(C(=O)NC23CCC(C(=O)O)(CC2)CC3)C(c2cccc(Cl)c2F)C2(C(=O)Nc3cc(Cl)ccc32)C12CCCCC2
Second compound 0.03 µM
  IC50: > 100 nM
Second compound 0.0949 µM
  IC50: 2.07 nM
Second compound 0.3 µM
  IC50: < 0.316 nM
Second compound 0.949 µM
  IC50: < 0.316 nM
Second compound 3 µM
  IC50: < 0.316 nM
Second compound 0.03 µM, first compound 0.000316 µM
  viability, T/C: 61.3%
Second compound 0.03 µM, first compound 0.001 µM
  viability, T/C: 64%
[1]
  viability, T/C: 58.6%
[2]
  viability, T/C: 59.8%
[3]
  viability, T/C: 55.8%
[4]
  viability, T/C: 57%
Second compound 0.0949 µM, first compound 0.000316 µM
  viability, T/C: 51.2%
Second compound 0.0949 µM, first compound 0.001 µM
  viability, T/C: 51.1%
[5]
  viability, T/C: 49.1%
[6]
  viability, T/C: 47.7%
[7]
  viability, T/C: 51.1%
[8]
  viability, T/C: 44.3%
Second compound 0.3 µM, first compound 0.000316 µM
  viability, T/C: 27.9%
Second compound 0.3 µM, first compound 0.001 µM
  viability, T/C: 24.9%
[9]
  viability, T/C: 26.9%
[10]
  viability, T/C: 23.3%
[11]
  viability, T/C: 25.6%
[12]
  viability, T/C: 27%
Second compound 0.949 µM, first compound 0.000316 µM
  viability, T/C: 8.22%
Second compound 0.949 µM, first compound 0.001 µM
  viability, T/C: 6.71%
[13]
  viability, T/C: 6.88%
[14]
  viability, T/C: 6.14%
[15]
  viability, T/C: 7.47%
[16]
  viability, T/C: 6.92%
Second compound 3 µM, first compound 0.000316 µM
  viability, T/C: 1.71%
Second compound 3 µM, first compound 0.001 µM
  viability, T/C: 1.81%
[17]
  viability, T/C: 1.94%
[18]
  viability, T/C: 1.61%
[19]
  viability, T/C: 1.43%
[20]
  viability, T/C: 2.12%
